Read-outs that look alike come from different tables or passages of the source.
What was measured:
[1] = target: T1, Orco (AgORco) (Anopheles gambiae, UniProt Q7QCC7); experiment: Fluo-4 Ca2+ imaging, HEK293 cells expressing Orco alone; type: cell-based; conditions: for Emax: HEK293, read-out: Orco Agonist % value Of VUAA1
T1 construct: expressed in transfected cells
T1 sequence (Q7QCC7 1-478): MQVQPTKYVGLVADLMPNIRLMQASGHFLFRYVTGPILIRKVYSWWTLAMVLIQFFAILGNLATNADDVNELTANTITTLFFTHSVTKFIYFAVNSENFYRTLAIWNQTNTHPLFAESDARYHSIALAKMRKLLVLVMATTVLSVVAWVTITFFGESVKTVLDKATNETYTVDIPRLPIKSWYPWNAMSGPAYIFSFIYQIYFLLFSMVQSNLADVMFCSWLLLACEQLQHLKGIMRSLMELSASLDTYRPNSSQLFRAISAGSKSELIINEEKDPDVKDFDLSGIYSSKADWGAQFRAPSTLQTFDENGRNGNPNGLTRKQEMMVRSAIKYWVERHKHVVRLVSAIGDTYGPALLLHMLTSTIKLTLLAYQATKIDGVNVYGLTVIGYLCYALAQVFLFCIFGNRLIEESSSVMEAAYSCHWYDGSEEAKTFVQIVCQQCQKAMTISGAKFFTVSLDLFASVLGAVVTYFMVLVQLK
Source text: (§1) For transient transfections, ORs were cloned into pCl (Promega) and transfected into Flp-In™ T-REx™293 cell lines (Invitrogen) with Fu GENE6 (Roche). For the creation of stable cell lines, a cell culture expression vector capable of expressing Orco in conjunction with a conventional OR, pcDNA5/FRT/TO (Invitrogen) was modified to create two individual expression cassettes each under the control of a separate CMV/Tet02 promoter and a BGH poly-adenylation signal. Cells (as above) were transfected with the modified pcDNA5 plasmid along with POG44 (a Flp recombinase expression plasmid) to facilitate site-specific recombination. Stable cell lines were selected using Hygromycin B (Invitrogen). Cells were maintained in DMEM (Invitrogen) supplemented with 10% Tetracycline-free FBS (HyClone) and 15 ng/ml Blasticidin. For fluorometric Ca2+ measurements, stable lines expressing ORs of interest were seeded at 20,000 cells/well in black wall, poly-lysine coated 384-well cell culture plates (Greiner) and treated with […] tetracycline (Sigma) overnight to induce OR expression. Cells were dye-loaded with 1.8 uM Fluo-4 AM (Molecular Probes), 2.5 mM Probenecid (Molecular Probes) in assay buffer (20 mM HEPES, IX HBSS) for 45 minutes at 37° C. in 5% CO2 prior to each assay. Ca^2+ mobilization was assayed in an FDSS6000 (Hamamatsu). Baseline readings were taken for 20 s before automated addition of compound previously diluted in DMSO and assay buffer. Ratios were described as Maximum/Minimum response and each response was normalized to the maximum responder.

[2] = target: T2, AgORco+AgOR48 (Anopheles gambiae, UniProt Q7QCC7); experiment: Ca2+ imaging, HEK cells expressing AgORco+AgOR48; type: cell-based; conditions: for EC50: read-out: Orco + 48 Agonist EC50; for Orco + 48 Agonist % value Of VUAA1: relative to VUAA1; for Orco + 48 Agonist EC50 (given only relative to VUAA1): comparison with VUAA1 in words
T2 construct: expressed in transfected cells
T2 sequence (Q7QCC7 1-478): T1 sequence (Q7QCC7 1-478)
Source text: as §1
The ability of VUAA1 and its analogs to agonize representative ORco proteins from dipteran (Anopheles gambiae, AgORco), lepidopteran (Heliothis virescens, HvORco) and hymenopteran (Harpegnathos saltator, HsORco) orders was tested. […] Furthermore, the hierarchy of VUAA series potency was the same, irrespective of whether AgORco was co-expressed with AgOR65 or AgOR48 tuning ORs (FIG. 45). Without wishing to be bound by a particular theory, odorant ligands are thought to activate the complex via interaction with the tuning ORx and thereby affect ORco/ORx channel properties. […] These findings indicate VUAA-class OR co-modulators are viable compounds for further development as broad-spectrum insect control strategies, and VUAA4 can provide an advance in the pharmacological profile of VUAA-based compounds.

[3] = target: T3, AgORco+AgOR10 (Anopheles gambiae, UniProt Q7QCC7); experiment: Fluo-4 Ca2+ imaging, HEK293 cells expressing Orco+AgOR10; type: cell-based; design: Orco 10 + Orco Angatonist % Reduction / Orco 10 + Orco Agonist % of control: concentration or dose not given beside the values; conditions: 10 + Orco; for Orco 10 + Orco Agonist, compared with VUAA1: agonist mode, qualitative, relative to VUAA1
T3 construct: expressed in transfected cells
T3 sequence (Q7QCC7 1-478): T1 sequence (Q7QCC7 1-478)
Source text: as §1
As part of an ongoing, cell based calcium imaging screen for novel small-molecule modulators of AgORs that might disrupt olfactory-driven mosquito behaviors (Rinker et al manuscript in preparation), the inventors identified a number of compounds that activated AgOR10+AgORco-expressing human embryonic kidney (HEK293) cells. One of these compounds, (FIG. 3 A) denoted here as VUAA1, elicited activity consistent with allosteric agonism and was pursued for its novel properties. The identity of VUAA1 was verified using high-resolution mass spectrometry (HRMS) as well as ^1H and ^13C NMR. […] As AgORco was the common element among these functional responses, the inventors postulated that VUAA1 was a potential AgORco agonist.

[4] = target: T4, AgOrco+AgOR65 (Anopheles gambiae, UniProt Q7QCC7); experiment: Ca2+ imaging, HEK cells expressing AgOrco+AgOR65; type: cell-based
T4 construct: expressed in transfected cells
T4 sequence (Q7QCC7 1-478): T1 sequence (Q7QCC7 1-478)
Source text: as §1
For VUAA0, a single methyl from the para position of the aniline ring (compound VUAA0, FIG. 44) in the VUAA1 structure was removed. […] In VUAA0.5, unsaturation was introduced at the para position of the aniline ring (VUAA0.5, FIG. 44). […] In VUAA2, the ethyl group of the aniline ring in VUAA1 was replaced with an isopropyl group (VUAA2, FIG. 44).

[5] = tested on: An. gambiae early 4th instar larvae; experiment: Larval mosquito movement assay (Daniovision-Ethovision); type: in vivo, Anopheles gambiae
Description: Next, the agonist activity of the VUAA compound class was tested to establish the involvement of AgORs in mediating larval ortho and klinokinesis in response to a series of semiochemicals using larval-stage An. gambiae mosquitoes. Mosquito larvae are aquatic, thus compounds can be delivered to individual early 4th instar larvae regardless of volatility. The assay currently utilizes 6-well plates and the Daniovision-Ethovision platform (Noldus Inc.) to simultaneously record and analyze 6 larvae, thereby providing modest rates of throughput and a high degree of reproducibility. In these assays, larval movements are automatically quantified over 5-minute period and control larvae consistently move the same number of times in the presence or absence of 0.1% DMSO (p=0.80, n=31) (FIGS. 42-43). Furthermore, the effects of the widely-used synthetic insect repellent N, N-diethyl-meta-toluamide (DEET) was tested and DEET was also observed to increase larval movements at and above a threshold concentration of 5×10^−4M (p=0.013, n=27) (FIGS. 42-43).

[6] = Orco alone, read-out: Orco Agonist EC50
[7] = heteromeric OR channels AgOrco+AgOR65, read-out: EC50

With CCn1c(SCC(=O)Nc2ccc(C(C)C)cc2)nnc1-c1ccnc(F)c1 the Emax [1] was 38%, the EC50 [1, 6] was 100 µM and the EC50 ([2]; Orco + 48) was 75.2 µM. The “Orco + 48 Agonist % value Of VUAA1” value ([2]; Orco + 48) was 62%.
CCc1ccc2c(c1)CCN2C(=O)CSc1nnc(-c2cccnc2)n1CC was tested, and the “Orco 10 + Orco Agonist, compared with VUAA1” value [3] was “>VUAA1”, the Emax [1] was 121% and the EC50 [1, 6] was 35 µM. The EC50 ([2]; Orco + 48) was 12.8 µM.
With CC(C)c1ccc(NC(=O)CSc2nnc(-c3ccncc3)n2C2CC2)cc1 [drawing 634] the EC50 ([1]; Orco alone, agonist) was 3.5 µM, the EC50 ([2]; Orco + 48, agonist) was 1.9 µM and the “Orco + 48 Agonist % value Of VUAA1” value ([2]; Orco + 48, agonist) was 122%. For the same molecule, the EC50 ([4]; Orco + 65, agonist, read-out: Orco + 65 Agonist EC50) was 3.1 µM.
In the case of CCCc1ccc(NC(=O)CSc2nnc(-c3cccnc3)n2CC)cc1, the “Orco 10 + Orco Agonist, compared with VUAA1” value [3] is reported as “<VUAA1”, the Emax [1] is reported as 87% and the EC50 [1, 6] is reported as 63 µM. It also gave an EC50 ([2]; Orco + 48) of 19.8 µM.
With CCn1c(SCC(=O)Nc2ccc(C(C)C)cc2)nnc1-c1ccn(C)n1 the “Orco Agonist % value Of VUAA1” value ([1]; Orco alone, agonist, relative to VUAA1) was “<VUAA1” and the “Orco Agonist EC50 (relative to VUAA1)” value ([1]; Orco alone, agonist, stated in words relative to VUAA1) was “<VUAA1”.
CCN(CC)C(=O)c1cccc(C)c1 [DEET, N, N-diethyl-meta-toluamide, reference compound] was tested, and the “threshold concentration for increased larval movement” value ([5]; movements over 5-minute period) was 500 µM.
For O=C(CSc1nnc(-c2ccncc2)n1C1CC1)Nc1ccc(Br)cc1F, the “Orco + 48 Agonist % value Of VUAA1” value ([2]; Orco + 48, agonist) was “<VUAA1” and the “Orco + 48 Agonist EC50 (relative to VUAA1)” value ([2]; Orco + 48, agonist, stated in words relative to VUAA1) was “<VUAA1”.
CCc1ccc(NC(=O)CSc2nnc(-c3ccncc3)n2CC)cc1 was tested, and the “Orco + 48 Agonist EC50 (given only relative to VUAA1)” value ([2]; Orco + 48) was “<VUAA1” and the “Orco + 48 Agonist % value Of VUAA1” value ([2]; Orco + 48) was “<VUAA1”.
In the case of CCn1c(SCC(=O)Nc2ccc(C(C)C)cc2)nnc1-c1cccnc1 [drawing 381], the “Orco 10 + Orco Agonist, compared with VUAA1” value [3] is reported as “>VUAA1”, the Emax [1] is reported as 102% and the EC50 [1, 6] is reported as 12.9 µM. The EC50 ([2]; Orco + 48) was 9.9 µM, the “Orco + 48 Agonist % value Of VUAA1” value ([2]; Orco + 48) was 109% and the EC50 ([4]; Orco + 65, read-out: Orco + 65 Agonist EC50) was 9.6 µM.
For CCn1c(SCC(=O)Nc2ccc(Br)cc2F)nnc1-c1ccncc1, the “Orco + 48 Agonist EC50 (given only relative to VUAA1)” value ([2]; Orco + 48) was “<VUAA1” and the “Orco + 48 Agonist % value Of VUAA1” value ([2]; Orco + 48) was “<VUAA1”.
CCn1c(SCC(=O)Nc2ccc(C(C)C)cc2)nnc1-c1cccnc1 [VUAA2, 2-((4-ethyl-5-(pyridin-3-yl)-4H-1,2,4-triazol-3-yl)thio)-N-(4-isopropylphenyl)acetamide] was tested, and the “larval behavioral (movement) response” value ([5]; compared with DMSO controls or VUAA1) was “not observed to elicit larval responses greater than VUAA1” and the EC50 [4, 7] was 9.2 µM.
Molecule CCCn1c(SCC(=O)Nc2ccc(C(C)C)cc2)nnc1-c1ccncc1 has an EC50 ([2]; Orco + 48, agonist) of 19 µM.
In the case of CCn1c(SCC(=O)Nc2ccc(C(C)C)cc2)nnc1-c1cc[nH]c1, the EC50 ([2]; Orco + 48, agonist) is reported as 13.7 µM and the “Orco + 48 Agonist % value Of VUAA1” value ([2]; Orco + 48, agonist) is reported as “Poor”.
With CCn1c(SCC(=O)Nc2ccc(Br)cc2F)nnc1-c1cccnc1 the “Orco 10 + Orco Agonist, compared with VUAA1” value [3] was “<VUAA1”, the “Orco 10 + Orco Angatonist % Reduction” value ([3]; antagonist mode) was 0.00% and the “Orco Agonist value compared with VUAA1” value ([1]; Orco alone, qualitative, relative to VUAA1) was “<VUAA1”. For the same molecule, the EC50 [1, 6] was 192 µM.
Work on C=CCc1ccc(O)c(OC)c1 [eugenol, reference compound] yielded an EC50 [4, 7] of 0.5 µM.

Reference: patent US11484032B2, “Compositions for inhibition of insect sensing” (Vanderbilt University, priority 2011, dated 2022)
